Values after ≈ are worked out from the molar mass of the structure shown. Blank lines part the entries; values can stand above or below the compound they belong to.
Experiments:
[1] = Lipophilicity, log D of the compound at pH 7.4; format: physicochemical; conditions: buffer
[2] = Solubility of the compound in PBS buffer at pH 7.4; format: physicochemical
[3] = AUC in rat at 10 mg/kg, po; format: ADME, organism-based; parameters: dose 10 mg/kg, route oral; conditions: plasma
[4] = Clearance in rat microsomes; format: ADME, Microsome
[5] = Half life in rat microsomes; format: ADME, Microsome
[6] = Apparent permeability from basolateral to apical side in human Caco2 cells; format: ADME, cell-based; conditions: Caco-2
[7] = Cmax in rat at 10 mg/kg, po; format: ADME, organism-based; parameters: dose 10 mg/kg, route oral; conditions: in vivo
[8] = Apparent permeability from apical to basolateral side in human Caco2 cells; format: ADME, cell-based; conditions: Caco-2
[9] = Clearance in rat at 5 mg/kg, iv; format: ADME, organism-based; parameters: dose 5 mg/kg, route intravenous; conditions: in vivo
[10] = Volume of distribution at steady state in rat at 5 mg/kg, iv; format: ADME, organism-based; parameters: dose 5 mg/kg, route intravenous; conditions: in vivo, read-out: Vdss
[11] = Bioavailability in rat at 5 mg/kg, iv; format: ADME, organism-based; conditions: in vivo
[12] = Half life in rat at 5 mg/kg, iv; format: ADME, organism-based; parameters: dose 5 mg/kg, route intravenous; conditions: in vivo

logD [1]: 1.5
Structure (SMILES): COC(=O)c1ccc2nc(NC(C)=O)sc2c1

solubility [2]: 25 µM (≈ 8.73 µg/mL)
Structure (SMILES): CC(=O)Nc1nc2ccc(-c3cnc(N)c(C(F)(F)F)c3)cc2n1C

AUC [3]: 198 µM·h
clearance [4]: 8 µL/min/mg
clearance [9]: 2 mL/min/kg
half-life [5]: 13 h
Papp B→A [6]: 40 ×10⁻⁶ cm/s
Vd [10]: 0.68 L/kg
bioavailability [11]: 95%
Cmax [7]: 15700 nM
half-life [12]: 3 h
Papp A→B [8]: 40 ×10⁻⁶ cm/s
Structure (SMILES): CC(=O)Nc1cn2cc(-c3cnc(N)c(C(F)(F)F)c3)ccc2n1

solubility [2]: 4.8 µM (≈ 1.61 µg/mL)
Structure (SMILES): CC(=O)Nc1cn2cc(-c3cnc(N)c(C(F)(F)F)c3)cnc2n1

solubility [2]: 7.1 µM (≈ 2.61 µg/mL)
Structure (SMILES): Nc1ccc(-c2ccc3nc(NC(=O)CN4CCCCC4)sc3c2)cn1

AUC [3]: 16 µM·h
clearance [4]: 4 µL/min/mg
clearance [9]: 19 mL/min/kg
half-life [5]: 3.12 h
Papp B→A [6]: 42 ×10⁻⁶ cm/s
Vd [10]: 3.6 L/kg
bioavailability [11]: 57%
Cmax [7]: 2500 nM
half-life [12]: 2.5 h
Papp A→B [8]: 46 ×10⁻⁶ cm/s
solubility [2]: 4.2 µM (≈ 1.19 µg/mL)
Structure (SMILES): CC(=O)Nc1nc2ccc(-c3ccc(N)nc3)cc2s1

solubility [2]: 8.3 µM (≈ 3.86 µg/mL)
Structure (SMILES): Nc1ncc(-c2ccc3nc(NC(=O)CCCN4CCOCC4)sc3c2)cc1C(F)(F)F

Papp B→A [6]: 18 ×10⁻⁶ cm/s
Papp A→B [8]: 6.7 ×10⁻⁶ cm/s
Structure (SMILES): COc1cc(-c2ccc3nc(NC(C)=O)sc3c2)cnc1N

Continued, compound first:

Structure (SMILES): CC(=O)Nc1cn2cc(-c3cnc(N)c(C(F)(F)F)c3)ncc2n1
solubility [2]: 1 µM (≈ 0.336 µg/mL)

Structure (SMILES): CC(=O)Nc1ncc2cc(-c3cnc(N)c(C(F)(F)F)c3)ccc2n1
solubility [2]: 0.5 µM (≈ 0.174 µg/mL)

Structure (SMILES): Nc1ncc(-c2ccc3nc(NC(=O)CCCN4CCCCC4)sc3c2)cc1C(F)(F)F
solubility [2]: 56 µM (≈ 26 µg/mL)

Structure (SMILES): CC(=O)Nc1nc2ccc(-c3cnc(N)c(C(F)(F)F)c3)cc2s1
AUC [3]: 18 µM·h
clearance [4]: 8 µL/min/mg
half-life [5]: 13 h
Papp B→A [6]: 13 ×10⁻⁶ cm/s
Cmax [7]: 2900 nM
Papp A→B [8]: 16 ×10⁻⁶ cm/s
solubility [2]: 1.5 µM (≈ 0.529 µg/mL)

Structure (SMILES): CC(=O)Nc1nc2ccc(-c3cnc(N)c(C(F)(F)F)c3)cc2o1
solubility [2]: 1.3 µM (≈ 0.437 µg/mL)

Structure (SMILES): Nc1ccc(-c2ccc3nc(NC(=O)CCCN4CCCCC4)sc3c2)cn1
solubility [2]: 28 µM (≈ 11.1 µg/mL)

From ChEMBL document CHEMBL2417393, “Structure guided optimization of a fragment hit to imidazopyridine inhibitors of PI3K” (Bioorg Med Chem Lett, 2013)
